Here are results for one molecule from US6267962A, “Compositions and methods of treatment using peat derivatives” (C-P Technology Limited Partnership, priority 1997, dated 2001).

The test system of this experiment is psoriasis. The experiment is described as follows: Psoriasis, patients 32 and 33. It is filed as in vivo, human. Conditions: patient 32; fluocinonide alone on other elbow. An excerpt:
Patient 32 had suffered from psoriasis on their arms and elbows for over 10 years. A 10-30 Kd peat preparation was applied to one elbow twice daily for approximately nine months, with the occasional simultaneous application of fluocinonide cream. Fluocinonide cream alone was used on the other elbow.
Patient 33 had psoriasis that seemed to only manifest itself after an occurrence of strep throat. Their only successful treatment had been with chemotherapeutic agents.

In the case of `CC(=O)OCC(=O)[C@@]12OC(C)(C)O[C@@H]1C[C@H]1[C@@H]3C[C@H](F)C4=CC(=O)C=C[C@]4(C)[C@@]3(F)[C@@H](O)C[C@@]12C` [fluocinonide], the “psoriasis of elbow, skin lesions” value is reported as “no decrease in the skin lesions”.
